Key:
sAPP = details: cited from earlier work
PC12 cells = details: cited from earlier work
113pS K+ channels = details: cited from earlier work
[1] = tested on: LNCaP prostate cancer cells; experiment: Induction of apoptosis in LNCaP prostate cancer cells (DAPI staining); assay type: cell-based
Procedure: The capacity of inducing apoptosis by compound (1) was evaluated in a model of LNCaP prostate cancer cells. It is well established that in this model phorbol esters (e.g., PMA) activate PKC to induce apoptosis (reference 13). LNCaP cells were treated with compound (1) for 1 h, and apoptosis was assessed 24 h later.
Control cells or cells infected for 14 h with adenoviruses for LacZ, PKCα, or PKCδ (multiplicity of infection=10 pfu/cell) were treated with different concentrations of compound (1) or PMA for 1 h. Cells were collected 24 h later and stained with DAPI. The incidence of apoptosis in each preparation was analyzed by counting 500 cells and determining the percentage of apoptotic cells. Results are the mean±standard error of three independent experiments.
It is well established that PKCα and PKCδ are the isozymes that mediate phorbol ester-induced apoptosis in LNCaP cells (references 13c-e). A model that has been used to assess isozyme-specificity is the overexpression of specific PKCs by an adenoviral system. Infection of LNCaP cells with adenoviruses for PKCs leads to a high expression of the corresponding PKC isozyme, as determined by Western-blot analysis, kinase activity, or [^3H]PDBu binding (reference 13e).

In the case of `CN[C@@H]1C[C@H]2O[C@@](C)([C@@H]1OC)n1c3ccccc3c3c4c(c5c6ccccc6n2c5c31)C(=O)NC4` [Staurosporine], the “effect on BL-induced sAPP secretion” value (sAPP; control and AD fibroblasts) is given as “eliminated the effects of BL”.

For `CCCCCCCCC#Cc1ccc2c(c1)C[C@@H](CO)NC(=O)[C@H](C(C)C)N2C` [BL, (2S, 5S)-8-(1-decynyl)benzolactam], the “sAPP secretion in control fibroblasts” value (sAPP; control fibroblasts, 10 μM BL) is listed as “significant increases of sAPP secretion”, the “sAPP secretion over basal levels” value (sAPP; fibroblasts) is listed as “enhance sAPP secretion over basal levels” and the sAPP secretion (PC12 cells) is listed as about 3 fold. For the same molecule, the “responsiveness of AD fibroblast cell lines to the TEA challenge” value (113pS K+ channels) was “restored the responsiveness”.

For `CCCCCCCCCCCCCC(=O)O[C@@H]1[C@@H](C)[C@@]2(O)[C@@H](C=C(CO)C[C@]3(O)C(=O)C(C)=C[C@@H]23)[C@@H]2C(C)(C)[C@]12OC(C)=O` [PMA, reference compound], the “apoptotic effect with control adenovirus” value ([1]; LNCaP cells infected with LacZ adenovirus) was “did not affect the apoptotic effect” and the “apoptotic response with overexpression of PKC isozymes” value ([1]; LNCaP cells infected with adenoviruses for PKCα or PKCδ) was “marked potentation”.

Source: patent US20040019018A1, “Rigid pyrrolidone modulators of pkc” (priority 2003, published 2004)
